Our source for the GI50 and IC50 values is ChEMBL document CHEMBL4725331, “An investigative study of antitumor properties of a novel thiazolo[4,5-d]pyrimidine small molecule revealing superior antitumor activity with CDK1 selectivity and potent pro-apoptotic properties” (Bioorg Med Chem, 2020).

Experiment [1] relates to HOP-92. Kind of experiment: Antiproliferative activity against human HOP-92 cells assessed as inhibition of cell growth measured after 48 hrs by SRB assay. The class given is functional. On the technique in general: The SRB assay estimates cell density from bound dye.
Experiment [2] deals with IGROV-1. Kind of experiment: Antiproliferative activity against human IGROV-1 cells assessed as inhibition of cell growth measured after 48 hrs by SRB assay. In kind it is functional.
In experiment [3] the test system is HCT-116. Nature of the experiment: Cytotoxicity against human HCT-116 cells assessed as reduction in cell viability after 48 hrs by MTT assay. In kind it is functional, cell-based. The settings on record: HCT-116, 48 h. On the technique in general: Tetrazolium dyes change colour on reduction, which living cells bring about.
The test system of experiment [4] is WI-38. Kind of experiment: Cytotoxicity against human WI-38 cells assessed as reduction in cell viability after 48 hrs by MTT assay. The class given is cell-based. To be noted: WI-38, 48 h.

In general, GI50 refers to the concentration at which growth is held to half of that of the control. `COc1ccc(-n2c(=S)sc3c(=O)[nH]c(C)nc32)c(OC)c1`: the GI50 in experiment [1] is below 0.01 µM; in experiment [2] it was 0.18 µM.

In general, IC50 refers to the concentration that gives 50% inhibition. For the compound `CC[C@H](CO)Nc1nc(NCc2ccccc2)c2ncn(C(C)C)c2n1` [SELICICLIB], the IC50 is 15.5 µM in experiment [3] and 24.1 µM in experiment [4].
